Source: patent US6565891B1, “Nutritional supplement for children” (Tsar Health Private Ltd., priority 2002, dated 2003)

How the values were obtained:
[1] = in vivo; cited from earlier work
Interleukin-2 = test: Zinc dose response: interleukin-2; assay type: in vivo, human; details: children age 4-12 years, median (standard deviation)
Method: (§1) The basic concept underlying the assessment of the most optimum nutrient amounts for a given age group uses the principle of“dose-response curves”. At least four groups of individuals were provided with various amounts of a given nutrient and their immune responses were measured using established and accepted techniques. The amount of a nutrient that gave the best response was considered the optimum amount. Dose response curves were determined for all vitamins and trace elements considered essential for human health, particularly immunity.
(§2) The ratio of radioactivity in the test samples divided by radioactivity in control samples gave the “stimulation response” shown in FIGS. 1 and 2.

blood lymphocytes = test: Zinc dose response: lymphocyte response to PHA (stimulation index); assay type: in vivo, human; details: children age 4-12 years, diet zinc 5 mg, median (standard deviation)
Method: as §1
Data for the dose response curve for zinc in a group of 4 to 12 year old children is shown in FIGS. 1 and 2, with the total amount of zinc taken is shown for each group. To determine the magnitude of immune response, an aliquot of blood was withdrawn from each subject in the study, blood lymphocytes were separated, washed and mixed with the mitogen phytohemagglutinin (PHA) in previously determined optimum amount. The optimum amount of PHA used in the experiments was predetermined by a set of dose response curves using lymphocytes of a healthy donor and four different concentrations of PHA. After culture in a sterile environment for 72 hours, the cells were washed and mixed with radioactive thymidine. The same steps were undertaken in a control sample in which only the culture medium was used, not PHA. The cells were washed and radioactivity determined.
as §2

Thymulin activity = test: Zinc dose response: thymulin activity; assay type: in vivo, human; details: children age 4-12 years
Method: as §1, §2

Antibody response = test: Zinc dose response: antibody response; assay type: in vivo, human; details: children age 4-12 years
Method: as §1, §2

SMILES	biologic half-life in the body [1]	Interleukin-2 (Interleukin-2; 7 mg supplemental zinc)	Interleukin-2 (Interleukin-2; 20 mg supplemental zinc)	Interleukin-2 (Interleukin-2; 50 mg supplemental zinc)	Lymphocyte response to PHA (stimulation index) (blood lymphocytes; 7 mg supplemental zinc)	Lymphocyte response to PHA (stimulation index) (blood lymphocytes; 20 mg supplemental zinc)	Lymphocyte response to PHA (stimulation index) (blood lymphocytes; 50 mg supplemental zinc)	Thymulin activity (median reciprocal titre) (Thymulin activity; 7 mg supplemental zinc)	Thymulin activity (median reciprocal titre) (Thymulin activity; 20 mg supplemental zinc)	Thymulin activity (median reciprocal titre) (Thymulin activity; 50 mg supplemental zinc)	Antibody response (median reciprocal titre) (Antibody response; 7 mg supplemental zinc)	Antibody response (median reciprocal titre) (Antibody response; 20 mg supplemental zinc)	Antibody response (median reciprocal titre) (Antibody response; 50 mg supplemental zinc)
Cc1ncc(C[n+]2csc(CCO)c2C)c(N)n1 [Thiamin]	about 15 days												
[Zn] [zinc]		16(2.0) units/ml	11(1.5) units/ml	8(1.3) units/ml	86(11)	54(9)	41(8)	216	187	166	318	129	73
